Data from patent US20050090505A1, “Methods of reducing risk of infection from pathogens” (priority 2003, published 2005).
Where a name gives a salt, the structure may show the parent alone.

Biological target: T1, airway epithelial sodium currents (sodium channel) (UniProt A0A8I3MKE6+A0A8I3Q679+Q95165)
T1 sequence (A0A8I3MKE6 1-646): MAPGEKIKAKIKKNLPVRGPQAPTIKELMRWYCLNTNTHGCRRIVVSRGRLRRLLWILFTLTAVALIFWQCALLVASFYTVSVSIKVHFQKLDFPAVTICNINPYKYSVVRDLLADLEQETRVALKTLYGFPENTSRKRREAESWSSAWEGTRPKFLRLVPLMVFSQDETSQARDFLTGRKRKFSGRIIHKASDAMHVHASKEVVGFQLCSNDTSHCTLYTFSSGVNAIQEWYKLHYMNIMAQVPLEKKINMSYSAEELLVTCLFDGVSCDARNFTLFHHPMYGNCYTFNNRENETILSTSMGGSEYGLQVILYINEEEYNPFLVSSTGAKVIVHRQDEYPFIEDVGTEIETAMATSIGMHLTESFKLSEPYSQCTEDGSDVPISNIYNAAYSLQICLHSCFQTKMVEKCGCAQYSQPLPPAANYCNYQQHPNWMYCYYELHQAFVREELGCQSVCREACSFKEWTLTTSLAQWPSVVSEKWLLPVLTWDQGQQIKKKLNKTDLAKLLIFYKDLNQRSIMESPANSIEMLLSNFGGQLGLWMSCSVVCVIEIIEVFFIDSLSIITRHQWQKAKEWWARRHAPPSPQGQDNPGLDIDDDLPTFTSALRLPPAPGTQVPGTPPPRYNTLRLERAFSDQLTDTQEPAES
T1 sequence (A0A8I3Q679 1-649): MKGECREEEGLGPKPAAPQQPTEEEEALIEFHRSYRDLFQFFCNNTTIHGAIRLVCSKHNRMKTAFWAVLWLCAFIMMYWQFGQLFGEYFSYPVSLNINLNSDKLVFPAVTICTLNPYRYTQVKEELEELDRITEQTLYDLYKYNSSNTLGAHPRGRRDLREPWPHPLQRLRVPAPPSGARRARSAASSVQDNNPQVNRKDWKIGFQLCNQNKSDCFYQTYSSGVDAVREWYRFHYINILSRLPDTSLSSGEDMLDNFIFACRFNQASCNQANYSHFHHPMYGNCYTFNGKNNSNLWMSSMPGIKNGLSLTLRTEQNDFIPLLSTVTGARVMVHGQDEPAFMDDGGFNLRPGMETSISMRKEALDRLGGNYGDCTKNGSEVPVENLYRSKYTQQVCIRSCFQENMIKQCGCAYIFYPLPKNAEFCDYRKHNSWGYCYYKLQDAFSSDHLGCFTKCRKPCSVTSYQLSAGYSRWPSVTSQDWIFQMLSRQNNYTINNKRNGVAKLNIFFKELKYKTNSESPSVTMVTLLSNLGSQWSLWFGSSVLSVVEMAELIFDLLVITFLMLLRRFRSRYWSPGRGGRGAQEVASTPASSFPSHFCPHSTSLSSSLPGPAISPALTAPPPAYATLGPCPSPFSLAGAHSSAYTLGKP
T1 sequence (Q95165 1-641): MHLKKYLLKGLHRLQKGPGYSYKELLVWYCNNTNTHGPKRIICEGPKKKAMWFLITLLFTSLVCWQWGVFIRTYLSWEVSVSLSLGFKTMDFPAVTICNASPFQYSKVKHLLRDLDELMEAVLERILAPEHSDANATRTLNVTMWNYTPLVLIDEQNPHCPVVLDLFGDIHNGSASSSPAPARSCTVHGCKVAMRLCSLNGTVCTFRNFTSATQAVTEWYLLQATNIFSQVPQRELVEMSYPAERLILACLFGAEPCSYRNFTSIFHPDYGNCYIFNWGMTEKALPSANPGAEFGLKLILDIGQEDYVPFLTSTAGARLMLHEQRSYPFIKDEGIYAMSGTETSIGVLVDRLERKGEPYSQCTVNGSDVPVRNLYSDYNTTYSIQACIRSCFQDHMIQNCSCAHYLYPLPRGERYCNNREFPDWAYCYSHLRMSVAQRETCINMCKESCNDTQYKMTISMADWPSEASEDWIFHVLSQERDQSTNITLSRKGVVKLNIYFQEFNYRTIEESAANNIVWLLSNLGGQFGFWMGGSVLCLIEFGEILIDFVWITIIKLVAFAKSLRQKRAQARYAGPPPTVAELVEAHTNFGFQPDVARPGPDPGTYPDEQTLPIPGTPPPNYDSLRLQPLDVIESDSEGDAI
Assay: Sodium channel blocking activity: inhibition of short circuit current (ISC) in airway epithelial monolayers mounted in Ussing chambers
Format: cell-based, human, dog, sheep or rodent
Details: Alaphatic Pyrazinoylguanidines; relative potency for PSA 4022 = 100 using EC50 from PSA 4022 in same run
Experimental: In Vitro Measure of Sodium Channel Blocking Activity and Reversibility
One assay used to assess mechanism of action and/or potency of the compounds of the present invention involves the determination of lumenal drug inhibition of airway epithelial sodium currents measured under short circuit current (ISC) using airway epithelial monolayers mounted in Ussing chambers. Cells obtained from freshly excised human, dog, sheep or rodent airways are seeded onto porous 0.4 micron Snapwell™ Inserts (CoStar), cultured at air-liquid interface (ALI) conditions in hormonally defined media, and assayed for sodium transport activity (ISC) while bathed in Krebs Bicarbonate Ringer (KBR) in Using chambers. All test drug additions are to the lumenal bath with half-log dose addition protocols (from 1×10^−11 M to 3×10^−5 M), and the cumulative change in ISC (inhibition) recorded. All drugs are prepared in dimethyl sulfoxide as stock solutions at a concentration of 1×10^−2 M and stored at −20° C. Eight preparations are typically run in parallel; two preparations per run incorporate amiloride and/or benzamil as positive controls. After the maximal concentration (5×10^−5 M) is administered, the lumenal bath is exchanged three times with fresh drug-free KBR solution, and the resultant ISC measured after each wash for approximately 5 minutes in duration. Reversibility is defined as the percent return to the baseline value for sodium current after the third wash. All data from the voltage clamps are collected via a computer interface and analyzed off-line.
Dose-effect relationships for all compounds are considered and analyzed by the Prism 3.0 program. IC50 values, maximal effective concentrations, and reversibility are calculated and compared to amiloride and benzamil as positive controls.

| SMILES | Fold Amiloride** (PSA 4022 = 100) |
| --- | --- |
| N=C(NCCCCCCCCN)NC(=O)c1nc(Cl)c(N)nc1N [compound 19336, N-(8-aminooctyl)-N′-(3,5-diamino-6-chloropyrazine-2-carbonyl)-guanidine dihydrochloride] | 12 ± 3 |

Same assay, conditions: Capped Pyrazinoylguanidines; relative potency for PSA 4022 = 100 using EC50 from PSA 4022 in same run

| SMILES | Fold Amiloride** (PSA 4022 = 100) |
| --- | --- |
| N=C(NCCCCc1ccc(OCC(=O)Nc2ncc[nH]2)cc1)NC(=O)c1nc(Cl)c(N)nc1N [compound 16437, 2-(4-{4-[N′-(3,5-diamino-6-chloropyrazine-2-carbonyl)guanidino]-butyl}phenoxy)-N-(1H-imidazol-2-yl)acetamide dihydrochloride] | 77 ± 53 |

Same assay, conditions: Cyclic Pyrazinoylguanidines; relative potency for PSA 4022 = 100 using EC50 from PSA 4022 in same run

| SMILES | Fold Amiloride** (PSA 4022 = 100) |
| --- | --- |
| N=C(NCCCCC1CCN(CCO)CC1)NC(=O)c1nc(Cl)c(N)nc1N [compound 25193, N-(3,5-diamino-6-chloropyrazine-2-carbonyl)-N′-{4-[1-(2-hydroxyethyl)piperidin-4-yl]butyl}guanidine dihydrochloride] | 8 ± 3 |
| Cl.Cl.Cl.N=C(N)NCCCN1CCC(CCCCNC(=N)NC(=O)c2nc(Cl)c(N)nc2N)CC1 [compound 25795, N-(3,5-Diamino-6-chloropyrazine-2-carbonyl)-N′-{4-[1-(3-guanidinopropyl)piperidin-4-yl]butyl}guanidine trihydrochloride] | 18 ± 7 |
| N=C(NCCCCC1CCN(CC(O)CO)CC1)NC(=O)c1nc(Cl)c(N)nc1N (stereo not drawn) [compound 25456, N-(3,5-Diamino-6-chloropyrazine-2-carbonyl)-N′-{4-[1-(2,3-dihydroxypropyl)-piperidin-4-yl]butyl}guanidine] | 6 ± 2 |

Same assay, conditions: Selected Alaphatic Pyrazinoylguanidines (Formula II); mean ± spread

| SMILES | EC50 [nM] |
| --- | --- |
| N=C(NCCCCCCCCN)NC(=O)c1nc(Cl)c(N)nc1N [compound 19336, N-(8-aminooctyl)-N′-(3,5-diamino-6-chloropyrazine-2-carbonyl)-guanidine dihydrochloride] | 76 ± 18 |

Same assay, conditions: Selected Cyclic Pyrazinoylguanidines (Formula III); mean ± spread

| SMILES | EC50 [nM] |
| --- | --- |
| N=C(NCCCCC1CCN(CCO)CC1)NC(=O)c1nc(Cl)c(N)nc1N [compound 25193, N-(3,5-diamino-6-chloropyrazine-2-carbonyl)-N′-{4-[1-(2-hydroxyethyl)piperidin-4-yl]butyl}guanidine dihydrochloride] | 99 ± 14 |

Same assay, conditions: Selected Cyclic Pyrazinoylguanidines (Formula III); mean ± spread; read-out: EC50

| SMILES | EC50 [nM] |
| --- | --- |
| N=C(NCCCCC1CCN(CC(O)CO)CC1)NC(=O)c1nc(Cl)c(N)nc1N (stereo not drawn) [compound 25456, N-(3,5-Diamino-6-chloropyrazine-2-carbonyl)-N′-{4-[1-(2,3-dihydroxypropyl)-piperidin-4-yl]butyl}guanidine] | 106 ± 34 |

System: not given
Assay: not given
Details: not given

| SMILES | melting point |
| --- | --- |
| N=C(N)NCCCCCCCNC(=N)NC(=O)c1nc(Cl)c(N)nc1N (as salt: hydrochloride) [compound 19155, N-{7-[N′-(3,5-diamino-6-chloropyrazine-2-carbonyl)guanidino]heptyl}guanidine dihydrochloride] | 140 to 142 °C |
| N=C(N)NCCCCCCCCCCCNC(=N)NC(=O)c1nc(Cl)c(N)nc1N (as salt: hydrochloride) [compound 23991, N-{11-[N′-(3,5-diamino-6-chloropyrazine-2-carbonyl)guanidino]-undecyl}guanidine dihydrochloride] | 151 to 153 °C |
| N=C(N)NCCCCCCCCCCNC(=N)NC(=O)c1nc(Cl)c(N)nc1N (as salt: hydrochloride) [compound 23608, N-{10-[N′-(3,5-diamino-6-chloropyrazine-2-carbonyl)guanidino]-decyl}guanidine dihydrochloride] | 156 to 158 °C |
| N=C(NCCCOCCCN)NC(=O)c1nc(Cl)c(N)nc1N (as salt: hydrochloride) | 164 to 166 °C (dec.) |
| CC(C)(C)OC(=O)NCCCCCCCCCCNC(=N)NC(=O)c1nc(Cl)c(N)nc1N | 186 to 188 °C |
| N=C(N)NCCCCCCCCCCCCNC(=N)NC(=O)c1nc(Cl)c(N)nc1N (as salt: hydrochloride) [compound 23683, N-{12-[N′-(3,5-diamino-6-chloropyrazine-2-carbonyl)guanidino]dodecyl)guanidine dihydrochloride] | 145 to 147 °C |
| CC(C)(C)OC(=O)NCCCCCCCCCCCNC(=N)NC(=O)c1nc(Cl)c(N)nc1N | 82 to 84 °C |
| N=C(N)NCCCCCCCCNC(=N)NC(=O)c1nc(Cl)c(N)nc1N (as salt: hydrochloride) [compound 19604, N-{8-[N′-(3,5-diamino-6-chloropyrazine-2-carbonyl)guanidino]octyl}-guanidine dihydrochloride] | 130 to 132 °C |
| CN(C)C(=O)COc1ccc(CCCCNC(=N)NC(=O)c2nc(Cl)c(N)nc2N)cc1 (as salt: hydrochloride) [compound 16313, 2-(4-{4-[N-(3,5-diamino-6-chloropyrazine-2-carbonyl)guanidino]-butyl}phenoxy)-N,N-dimethylacetamide hydrochloride] | 130 to 132 °C (dec.) |
| N=C(NCCCCCCCCCN)NC(=O)c1nc(Cl)c(N)nc1N (as salt: hydrochloride) [compound 19335, N-(9-aminononyl)-N′-(3,5-diamino-6-chloropyrazine-2-carbonyl)-guanidine dihydrochloride] | 155 to 157 °C (dec.) |
| N=C(NCCCCc1ccc(OCC(=O)NCC(N)=O)cc1)NC(=O)c1nc(Cl)c(N)nc1N (as salt: HCl) [compound 16314, N-carbamoylmethyl-2-(4-{4-[N′-(3,5-diamino-6-chloropyrazine-2-carbonyl)guanidino]butyl}phenoxy)acetamide] | 178 to 180 °C (dec.) |
| CC(C)(C)OC(=O)N=C(NCCCCCCCCNC(=N)NC(=O)c1nc(Cl)c(N)nc1N)NC(=O)OC(C)(C)C | 208 to 210 °C (dec.) |
| N=C(NCCCCCCCCCCCN)NC(=O)c1nc(Cl)c(N)nc1N (as salt: hydrochloride) [compound 23682, N-(11-aminoundecyl)-N′-(3,5-diamino-6-chloropyrazine-2-carbonyl)guanidine dihydrochloride] | 220 to 222 °C |
| N=C(NCCCCCCN)NC(=O)c1nc(Cl)c(N)nc1N (as salt: hydrochloride) [compound 18706, N-(6-aminohexyl)-N′-(3,5-diamino-6-chloropyrazine-2-carbonyl)guanidine dihydrochloride] | > 240 °C |
| N=C(NCCCCCCCCN)NC(=O)c1nc(Cl)c(N)nc1N (as salt: hydrochloride) [compound 19336, N-(8-aminooctyl)-N′-(3,5-diamino-6-chloropyrazine-2-carbonyl)-guanidine dihydrochloride] | 253 to 255 °C |
| N=C(N)NCCCCCCCCCNC(=N)NC(=O)c1nc(Cl)c(N)nc1N (as salt: hydrochloride) [compound 19006, N-{9-[N′-(3,5-diamino-6-chloropyrazine-2-carbonyl)guanidino]nonyl}guanidine dihydrochloride] | 178 to 180 °C |
